Laboratory results: US12435059B2, “AMP-activated protein kinase inhibitors and methods of making and using the same” (The Regents of the University of Colorado, priority 2019, dated 2025)
Like-named read-outs stand apart in the source and are kept apart here.

What was measured:
Assay in all cases: biochemical
Format in all cases: binding
468 kinases [1] = target: 468 kinases (Homo sapiens, UniProt Q9Y2H9); details: MAST1; read-out: % Inhibition @ 100 nM
468 kinases [2] = target: 468 kinases (Homo sapiens, UniProt P51957); details: NEK4; read-out: % Inhibition @ 100 nM
468 kinases [3] = target: 468 kinases (Homo sapiens, UniProt Q8IW41); details: MAPKAPK5; read-out: % Inhibition @ 100 nM
468 kinases [4] = target: 468 kinases (Homo sapiens, UniProt P29320); details: EPHA3; read-out: % Inhibition @ 100 nM
468 kinases [5] = target: 468 kinases (Homo sapiens, UniProt Q52WX2); details: SBK1; read-out: % Inhibition @ 100 nM
468 kinases [6] = target: 468 kinases (Homo sapiens, UniProt O15197); details: EPHB6; read-out: % Inhibition @ 100 nM
468 kinases (Homo sapiens, UniProt O15197), sequence (O15197 32-1021 limits assumed): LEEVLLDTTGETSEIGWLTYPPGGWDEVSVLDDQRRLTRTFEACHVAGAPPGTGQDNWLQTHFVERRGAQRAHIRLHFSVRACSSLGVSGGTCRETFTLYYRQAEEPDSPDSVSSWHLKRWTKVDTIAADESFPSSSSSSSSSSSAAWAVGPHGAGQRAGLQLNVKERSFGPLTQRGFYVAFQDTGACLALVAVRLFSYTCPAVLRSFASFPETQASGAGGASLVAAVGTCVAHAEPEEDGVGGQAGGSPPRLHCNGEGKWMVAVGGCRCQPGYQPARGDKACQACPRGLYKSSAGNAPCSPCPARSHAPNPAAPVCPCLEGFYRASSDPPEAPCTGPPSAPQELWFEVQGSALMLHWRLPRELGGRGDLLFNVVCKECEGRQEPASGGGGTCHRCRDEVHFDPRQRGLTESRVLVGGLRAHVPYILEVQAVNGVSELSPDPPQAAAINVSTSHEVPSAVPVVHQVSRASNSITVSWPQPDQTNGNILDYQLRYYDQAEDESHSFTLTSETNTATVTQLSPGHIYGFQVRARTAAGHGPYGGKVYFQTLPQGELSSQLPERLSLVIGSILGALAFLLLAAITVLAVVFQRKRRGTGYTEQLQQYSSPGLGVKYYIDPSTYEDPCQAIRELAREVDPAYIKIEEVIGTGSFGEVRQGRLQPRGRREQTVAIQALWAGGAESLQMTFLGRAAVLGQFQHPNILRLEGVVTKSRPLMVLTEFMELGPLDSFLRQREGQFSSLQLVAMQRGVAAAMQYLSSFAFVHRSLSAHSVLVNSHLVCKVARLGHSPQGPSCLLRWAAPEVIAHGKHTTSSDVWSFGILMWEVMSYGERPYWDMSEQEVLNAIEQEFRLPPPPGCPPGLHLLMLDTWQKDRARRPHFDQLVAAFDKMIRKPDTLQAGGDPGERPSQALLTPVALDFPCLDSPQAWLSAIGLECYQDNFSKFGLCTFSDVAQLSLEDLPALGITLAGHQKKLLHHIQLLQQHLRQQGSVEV

468 kinases [7] = target: 468 kinases (Homo sapiens, UniProt Q9Y243); details: AKT3; read-out: % Inhibition @ 100 nM
468 kinases (Homo sapiens, UniProt Q9Y243), sequence (Q9Y243 2-479 limits assumed): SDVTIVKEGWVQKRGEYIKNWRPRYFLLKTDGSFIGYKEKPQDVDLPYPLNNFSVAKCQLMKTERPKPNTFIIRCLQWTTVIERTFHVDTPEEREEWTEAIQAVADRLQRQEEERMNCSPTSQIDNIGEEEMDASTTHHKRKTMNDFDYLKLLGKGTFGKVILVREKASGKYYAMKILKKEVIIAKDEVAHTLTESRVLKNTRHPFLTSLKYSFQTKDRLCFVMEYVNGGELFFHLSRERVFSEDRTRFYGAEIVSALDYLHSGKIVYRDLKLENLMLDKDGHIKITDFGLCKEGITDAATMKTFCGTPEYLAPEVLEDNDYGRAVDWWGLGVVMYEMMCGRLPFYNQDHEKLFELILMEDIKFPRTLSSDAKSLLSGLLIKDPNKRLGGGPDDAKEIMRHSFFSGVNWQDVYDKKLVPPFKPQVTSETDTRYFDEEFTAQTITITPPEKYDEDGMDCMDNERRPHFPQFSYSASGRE

468 kinases [8] = target: 468 kinases (Homo sapiens, UniProt O43293); details: DAPK3; read-out: % Inhibition @ 100 nM
468 kinases [9] = target: 468 kinases (Homo sapiens, UniProt Q13627); details: DYRK1A; read-out: % Inhibition @ 100 nM
468 kinases [10] = target: 468 kinases (Homo sapiens, UniProt P21802); details: FGFR2; read-out: % Inhibition @ 100 nM
468 kinases (Homo sapiens, UniProt P21802), sequence (P21802 22-821 limits assumed): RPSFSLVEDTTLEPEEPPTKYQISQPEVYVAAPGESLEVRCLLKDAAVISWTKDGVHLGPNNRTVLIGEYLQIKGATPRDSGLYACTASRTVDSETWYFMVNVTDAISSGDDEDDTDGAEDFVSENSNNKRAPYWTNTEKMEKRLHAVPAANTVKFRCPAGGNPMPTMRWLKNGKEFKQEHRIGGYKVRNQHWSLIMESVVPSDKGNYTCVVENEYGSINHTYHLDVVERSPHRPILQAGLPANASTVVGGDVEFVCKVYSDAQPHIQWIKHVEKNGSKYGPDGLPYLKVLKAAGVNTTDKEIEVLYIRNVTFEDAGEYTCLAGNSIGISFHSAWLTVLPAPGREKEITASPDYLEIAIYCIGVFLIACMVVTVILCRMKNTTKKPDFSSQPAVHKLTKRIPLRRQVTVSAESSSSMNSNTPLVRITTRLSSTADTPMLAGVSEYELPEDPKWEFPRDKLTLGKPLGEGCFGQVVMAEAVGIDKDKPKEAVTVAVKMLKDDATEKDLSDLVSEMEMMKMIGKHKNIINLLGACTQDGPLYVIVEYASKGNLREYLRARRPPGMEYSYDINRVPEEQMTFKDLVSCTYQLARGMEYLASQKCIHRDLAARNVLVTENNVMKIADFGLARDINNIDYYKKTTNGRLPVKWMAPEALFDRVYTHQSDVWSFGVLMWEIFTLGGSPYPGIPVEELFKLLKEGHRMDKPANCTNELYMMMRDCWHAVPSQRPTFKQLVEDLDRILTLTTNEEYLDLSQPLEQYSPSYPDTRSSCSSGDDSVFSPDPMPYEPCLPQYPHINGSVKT

468 kinases [11] = target: 468 kinases (Homo sapiens, UniProt Q6ZWH5); details: NEK10; read-out: % Inhibition @ 100 nM
468 kinases [12] = target: 468 kinases (Homo sapiens, UniProt Q86YV6); details: MYLK4; read-out: % Inhibition @ 100 nM
468 kinases [13] = target: 468 kinases (Homo sapiens, UniProt P19525); details: PRKR; read-out: % Inhibition @ 100 nM
468 kinases [14] = target: 468 kinases (Homo sapiens, UniProt P06241); details: FYN; read-out: % Inhibition @ 100 nM
468 kinases [15] = target: 468 kinases (Homo sapiens, UniProt Q9Y2I7); details: PIKFYVE; read-out: % Inhibition @ 100 nM
468 kinases (Homo sapiens, UniProt Q9Y2I7), sequence (Q9Y2I7 2-2098 limits assumed): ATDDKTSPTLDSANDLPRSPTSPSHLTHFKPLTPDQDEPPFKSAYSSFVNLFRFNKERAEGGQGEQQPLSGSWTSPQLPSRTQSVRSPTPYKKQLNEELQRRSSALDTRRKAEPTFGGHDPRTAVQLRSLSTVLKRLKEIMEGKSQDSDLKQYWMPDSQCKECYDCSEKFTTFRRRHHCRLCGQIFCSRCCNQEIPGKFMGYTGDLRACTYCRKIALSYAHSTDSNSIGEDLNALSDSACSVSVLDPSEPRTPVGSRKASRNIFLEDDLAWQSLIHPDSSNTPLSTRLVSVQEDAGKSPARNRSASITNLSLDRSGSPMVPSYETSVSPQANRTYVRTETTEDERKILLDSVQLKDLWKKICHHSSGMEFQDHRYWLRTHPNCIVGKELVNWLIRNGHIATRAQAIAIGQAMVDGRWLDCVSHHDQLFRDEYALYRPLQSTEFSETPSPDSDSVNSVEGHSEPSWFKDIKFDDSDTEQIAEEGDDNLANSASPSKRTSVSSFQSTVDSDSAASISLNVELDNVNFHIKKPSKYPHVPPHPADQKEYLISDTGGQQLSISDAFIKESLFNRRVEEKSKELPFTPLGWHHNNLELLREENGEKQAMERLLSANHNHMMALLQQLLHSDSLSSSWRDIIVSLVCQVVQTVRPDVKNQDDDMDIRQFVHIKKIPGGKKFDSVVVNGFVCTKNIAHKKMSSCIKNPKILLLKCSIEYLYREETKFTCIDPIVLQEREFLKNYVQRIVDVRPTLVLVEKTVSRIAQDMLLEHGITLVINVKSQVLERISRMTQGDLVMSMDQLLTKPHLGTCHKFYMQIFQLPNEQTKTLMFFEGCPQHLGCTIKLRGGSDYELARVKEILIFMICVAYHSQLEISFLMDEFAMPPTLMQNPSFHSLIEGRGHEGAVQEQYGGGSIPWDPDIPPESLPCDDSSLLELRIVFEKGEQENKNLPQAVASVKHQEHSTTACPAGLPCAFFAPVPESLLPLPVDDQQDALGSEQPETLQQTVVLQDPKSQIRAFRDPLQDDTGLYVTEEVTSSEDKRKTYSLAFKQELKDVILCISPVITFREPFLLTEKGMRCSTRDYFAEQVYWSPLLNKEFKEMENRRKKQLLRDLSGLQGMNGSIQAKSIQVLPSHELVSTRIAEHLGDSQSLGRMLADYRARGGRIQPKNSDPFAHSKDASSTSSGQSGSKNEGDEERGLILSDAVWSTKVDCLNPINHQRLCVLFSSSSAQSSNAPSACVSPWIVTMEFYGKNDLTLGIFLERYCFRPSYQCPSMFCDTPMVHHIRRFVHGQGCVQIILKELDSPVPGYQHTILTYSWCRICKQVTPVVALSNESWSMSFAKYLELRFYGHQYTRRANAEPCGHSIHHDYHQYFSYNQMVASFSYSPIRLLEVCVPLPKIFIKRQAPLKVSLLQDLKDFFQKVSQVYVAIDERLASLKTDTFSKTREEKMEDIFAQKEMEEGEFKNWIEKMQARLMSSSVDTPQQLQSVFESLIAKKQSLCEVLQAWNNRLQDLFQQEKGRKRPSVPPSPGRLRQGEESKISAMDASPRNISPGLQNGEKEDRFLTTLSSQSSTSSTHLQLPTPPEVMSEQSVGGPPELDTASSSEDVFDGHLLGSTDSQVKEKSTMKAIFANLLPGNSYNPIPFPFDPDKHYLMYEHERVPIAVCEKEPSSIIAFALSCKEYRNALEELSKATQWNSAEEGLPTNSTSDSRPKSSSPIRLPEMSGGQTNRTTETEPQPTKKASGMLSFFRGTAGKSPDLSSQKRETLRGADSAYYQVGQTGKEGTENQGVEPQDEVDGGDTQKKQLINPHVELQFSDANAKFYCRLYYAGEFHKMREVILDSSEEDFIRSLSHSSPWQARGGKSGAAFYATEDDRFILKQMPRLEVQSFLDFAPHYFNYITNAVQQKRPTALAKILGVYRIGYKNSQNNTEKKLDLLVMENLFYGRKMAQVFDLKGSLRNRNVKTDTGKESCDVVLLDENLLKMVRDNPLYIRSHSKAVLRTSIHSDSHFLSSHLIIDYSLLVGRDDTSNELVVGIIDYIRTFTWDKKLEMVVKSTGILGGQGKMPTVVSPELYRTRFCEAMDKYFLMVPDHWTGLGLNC

468 kinases [16] = target: 468 kinases (Homo sapiens, UniProt O75582); details: read-out: % Inhibition @ 100 nM
468 kinases [17] = target: 468 kinases (Homo sapiens, UniProt Q13233); details: MAP3K1; read-out: % Inhibition @ 100 nM
468 kinases [18] = target: 468 kinases (Homo sapiens, UniProt O15146); details: MUSK; read-out: % Inhibition @ 100 nM
468 kinases [19] = target: 468 kinases (Homo sapiens, UniProt Q9BRS2); details: RIOK1; read-out: % Inhibition @ 100 nM
468 kinases [20] = target: 468 kinases (Homo sapiens, UniProt P27448); details: MARK3; read-out: % Inhibition @ 100 nM
468 kinases [21] = target: 468 kinases (Homo sapiens, UniProt O43353); details: RIPK2; read-out: % Inhibition @ 100 nM
468 kinases [22] = target: 468 kinases (Homo sapiens, UniProt P36888, D835H); details: FLT3(D835H); read-out: % Inhibition @ 100 nM
468 kinases [23] = target: 468 kinases (Homo sapiens, UniProt O75747); details: PIK3C2G; read-out: % Inhibition @ 100 nM
468 kinases [24] = target: 468 kinases (Homo sapiens, UniProt P42685); details: FRK; read-out: % Inhibition @ 100 nM
468 kinases [25] = target: 468 kinases (Homo sapiens, UniProt P23443); details: S6K1; read-out: % Inhibition @ 100 nM
468 kinases [26] = target: 468 kinases (Homo sapiens, UniProt Q9NWZ3); details: TRAK4; read-out: % Inhibition @ 100 nM
468 kinases [27] = target: 468 kinases (Homo sapiens, UniProt Q96L34); details: MARK4; read-out: % Inhibition @ 100 nM
468 kinases [28] = target: 468 kinases (Homo sapiens, UniProt P35626); details: GRK3; read-out: % Inhibition @ 100 nM
468 kinases [29] = target: 468 kinases (Homo sapiens, UniProt P10721); details: KIT; read-out: % Inhibition @ 100 nM
468 kinases [30] = target: 468 kinases (Homo sapiens, UniProt Q12852); details: DLK; read-out: % Inhibition @ 100 nM
468 kinases [31] = target: 468 kinases (Homo sapiens, UniProt P15056); details: BRAF; read-out: % Inhibition @ 100 nM
468 kinases (Homo sapiens, UniProt P15056), sequence (P15056 2-766 limits assumed): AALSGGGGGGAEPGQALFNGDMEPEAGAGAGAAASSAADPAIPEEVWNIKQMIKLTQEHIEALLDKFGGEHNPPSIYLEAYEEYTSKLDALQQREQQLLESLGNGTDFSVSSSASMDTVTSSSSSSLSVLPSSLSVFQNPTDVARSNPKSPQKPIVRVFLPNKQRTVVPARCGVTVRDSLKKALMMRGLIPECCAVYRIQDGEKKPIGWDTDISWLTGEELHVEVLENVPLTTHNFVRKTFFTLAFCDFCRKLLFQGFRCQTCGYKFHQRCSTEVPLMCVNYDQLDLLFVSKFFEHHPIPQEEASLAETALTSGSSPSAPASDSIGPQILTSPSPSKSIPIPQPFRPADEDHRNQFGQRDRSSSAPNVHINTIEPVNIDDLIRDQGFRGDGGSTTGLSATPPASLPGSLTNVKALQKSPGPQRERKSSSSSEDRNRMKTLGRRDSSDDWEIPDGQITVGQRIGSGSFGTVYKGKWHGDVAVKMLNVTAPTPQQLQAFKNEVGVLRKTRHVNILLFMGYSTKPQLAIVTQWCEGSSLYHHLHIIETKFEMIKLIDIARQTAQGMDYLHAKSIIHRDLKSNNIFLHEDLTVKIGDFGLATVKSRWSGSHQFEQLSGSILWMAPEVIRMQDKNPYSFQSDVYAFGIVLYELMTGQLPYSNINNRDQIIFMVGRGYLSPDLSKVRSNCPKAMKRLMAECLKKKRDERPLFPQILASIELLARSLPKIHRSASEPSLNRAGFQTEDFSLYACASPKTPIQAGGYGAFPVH

468 kinases [32] = target: 468 kinases (Homo sapiens, UniProt Q92772); details: CDKL2; read-out: % Inhibition @ 100 nM
468 kinases [33] = target: 468 kinases (Homo sapiens, UniProt Q9H2K8); details: TAOK3; read-out: % Inhibition @ 100 nM

| SMILES | inhibition at 0.1 µM (468 kinases [1]) [%] | inhibition at 0.1 µM (468 kinases [2]) [%] | inhibition at 0.1 µM (468 kinases [3]) [%] | inhibition at 0.1 µM (468 kinases [4]) [%] | inhibition at 0.1 µM (468 kinases [5]) [%] | inhibition at 0.1 µM (468 kinases [6]) [%] | inhibition at 0.1 µM (468 kinases [7]) [%] | inhibition at 0.1 µM (468 kinases [8]) [%] | inhibition at 0.1 µM (468 kinases [9]) [%] | inhibition at 0.1 µM (468 kinases [10]) [%] | inhibition at 0.1 µM (468 kinases [11]) [%] | inhibition at 0.1 µM (468 kinases [12]) [%] | inhibition at 0.1 µM (468 kinases [13]) [%] | inhibition at 0.1 µM (468 kinases [14]) [%] | inhibition at 0.1 µM (468 kinases [15]) [%] | inhibition at 0.1 µM (468 kinases [16]; RPS6KA5(Kin.Dom.1-N-terminal)) [%] | inhibition at 0.1 µM (468 kinases [16]; RPS6KA5(Kin.Dom.2-C-terminal)) [%] | inhibition at 0.1 µM (468 kinases [17]) [%] | inhibition at 0.1 µM (468 kinases [18]) [%] | inhibition at 0.1 µM (468 kinases [19]) [%] | other results |
| --- | --- | --- | --- | --- | --- | --- | --- | --- | --- | --- | --- | --- | --- | --- | --- | --- | --- | --- | --- | --- | --- |
| CCN(CC)CCNC(=O)c1c(C)[nH]c(/C=C2\C(=O)Nc3ccc(CCO)cc32)c1C [Compound No. 10, (Z)—N-(2-(Diethylamino)ethyl)-5-((5-(2-hydroxyethyl)-2-oxoindolin-3-ylidene)methyl)-2,4-dimethyl-1H-pyrrole-3-carboxamide] | 40 | 0 | 0 | 0 | 40 | 0 | 47 | 5 | 74 | 37 | 10 | 32 | 2 | 0 | 6 | 11 | 0 | 0 | 28 | 88 | inhibition at 0.1 µM (468 kinases [20]): 0%; inhibition at 0.1 µM (468 kinases [21]): 0%; inhibition at 0.1 µM (468 kinases [22]): 91.7%; inhibition at 0.1 µM (468 kinases [23]): 19%; inhibition at 0.1 µM (468 kinases [24]): 0%; inhibition at 0.1 µM (468 kinases [25]): 37%; inhibition at 0.1 µM (468 kinases [26]): 68%; inhibition at 0.1 µM (468 kinases [27]): 41%; inhibition at 0.1 µM (468 kinases [28]): 0%; inhibition at 0.1 µM (468 kinases [29]): 80%; inhibition at 0.1 µM (468 kinases [30]): 86%; inhibition at 0.1 µM (468 kinases [31]): 2%; inhibition at 0.1 µM (468 kinases [32]): 10%; inhibition at 0.1 µM (468 kinases [33]): 31% |
| CCN(CC)CCNC(=O)c1c(C)[nH]c(/C=C2\C(=O)Nc3ccc(CCC(N)=O)cc32)c1C [Compound No. 16, (Z)-5-((5-(3-Amino-3-oxopropyl)-2-oxoindolin-3-ylidene)methyl)-N-(2-(diethylamino)ethyl)-2,4-dimethyl-1H-pyrrole-3-carboxamide] | 30 | 9 | 28 | 14 | 58 | 34 | 17 | 21 | 93.3 | 1 | 20 | 24 | 29 | 95 | 27 | 0 | 17 | 36 | 15 | 87 | inhibition at 0.1 µM (468 kinases [20]): 0%; inhibition at 0.1 µM (468 kinases [21]): 18%; inhibition at 0.1 µM (468 kinases [22]): 92.9%; inhibition at 0.1 µM (468 kinases [23]): 4%; inhibition at 0.1 µM (468 kinases [24]): 38%; inhibition at 0.1 µM (468 kinases [25]): 33%; inhibition at 0.1 µM (468 kinases [26]): 68%; inhibition at 0.1 µM (468 kinases [27]): 12%; inhibition at 0.1 µM (468 kinases [28]): 61%; inhibition at 0.1 µM (468 kinases [29]): 8%; inhibition at 0.1 µM (468 kinases [30]): 100%; inhibition at 0.1 µM (468 kinases [31]): 11%; inhibition at 0.1 µM (468 kinases [32]): 5%; inhibition at 0.1 µM (468 kinases [33]): 56% |
